Laboratory results taken from patent publication US6217879A, “Enzyme-decomposed materials of laver and uses thereof” (Shirako Co., Ltd., priority 1998, dated 2001).

Experiment: Anti-oxidant action, linoleic acid peroxide number by rhodan iron method
Conditions: 3 mg α-tocopherol, 50° C.
Description: The respective fractions were measured for anti-oxidant activity in the following manner.
This solution was sealed in a test tube equipped with a screw and left in a thermostatic chamber at 50° C., and the peroxide number of the linoleic acid was measured every 48 hours by the rhodan iron method. […] The number of days elapsed until the absorbance at 500 nm reached 0.35 was assumed to be induction period (days).

Cc1c(C)c2c(c(C)c1O)CCC(C)(CCCC(C)CCCC(C)CCCC(C)C)O2 (stereo not drawn) [α-tocopherol]
Induction period (days until absorbance at 500 nm reached 0.35): 8 days
